Where a SMILES comes first, the peptide text is derived from it.

The target in one assay is T1, mGLP-1R (Mus musculus, UniProt O35659).
T1 construct: expressed in transfected cells; host or cells: HEK293
T1 sequence (O35659 22-463): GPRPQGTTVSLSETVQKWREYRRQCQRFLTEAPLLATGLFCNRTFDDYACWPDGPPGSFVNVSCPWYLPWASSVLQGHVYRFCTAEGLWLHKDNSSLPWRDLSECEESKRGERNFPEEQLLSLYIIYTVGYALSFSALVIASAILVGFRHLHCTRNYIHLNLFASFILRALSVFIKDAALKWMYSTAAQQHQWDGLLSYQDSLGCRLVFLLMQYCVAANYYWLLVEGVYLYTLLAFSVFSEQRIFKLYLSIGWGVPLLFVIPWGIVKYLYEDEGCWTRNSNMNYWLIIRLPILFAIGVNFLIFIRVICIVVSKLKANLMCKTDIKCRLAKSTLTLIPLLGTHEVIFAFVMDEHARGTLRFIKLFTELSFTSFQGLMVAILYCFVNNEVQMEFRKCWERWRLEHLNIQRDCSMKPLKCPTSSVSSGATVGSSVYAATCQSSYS
In words: GLP-1R agonist activity, cAMP in transfected HEK293 cells. The format is cell-based. Particulars: HEK293 cells transfected with GLP-1R, cAMP, 20 min incubation; read-out: mGLP-1R EC50.

Another assay has as its target T2, mGIPR (Mus musculus, UniProt Q0P543).
T2 construct: expressed in transfected cells; host or cells: HEK293
T2 sequence (Q0P543 19-460): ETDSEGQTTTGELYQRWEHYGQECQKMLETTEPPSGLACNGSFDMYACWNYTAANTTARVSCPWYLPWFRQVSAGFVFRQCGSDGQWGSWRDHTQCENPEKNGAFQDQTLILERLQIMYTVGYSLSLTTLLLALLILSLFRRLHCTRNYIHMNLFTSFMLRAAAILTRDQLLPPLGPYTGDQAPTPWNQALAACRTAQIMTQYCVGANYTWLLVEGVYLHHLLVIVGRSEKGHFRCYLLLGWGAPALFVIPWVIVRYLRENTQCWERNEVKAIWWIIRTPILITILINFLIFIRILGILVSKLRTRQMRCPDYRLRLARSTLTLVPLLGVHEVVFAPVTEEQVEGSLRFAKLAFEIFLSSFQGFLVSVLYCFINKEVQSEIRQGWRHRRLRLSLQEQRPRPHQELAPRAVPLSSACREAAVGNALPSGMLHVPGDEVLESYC
In words: GIPR agonist activity, cAMP in transfected HEK293 cells. The assay is classed as cell-based. The note with it: HEK293 cells transfected with GIPR, cAMP, 20 min incubation; read-out: mGIPR EC50.

Procedure for mGIPR: HEK293 cells were co-transfected with cDNA encoding GLP-1R or GIPR. In a test for determining the compound, the cells were inoculated in a 96-well plate 2 h in advance, the polypeptide compound was dissolved with DMSO, and diluted to different multiples with a culture medium containing 0.1% bovine serum albumin and added to the co-transfected cells.
Procedure for mGLP-1R: HEK293 cells were co-transfected with cDNA encoding GLP-1R or GIPR. In a test for determining the compound, the cells were inoculated in a 96-well plate 2 h in advance, the polypeptide compound was dissolved with DMSO, and diluted to different multiples with a culture medium containing 0.1% bovine serum albumin and added to the co-transfected cells. After the cells were incubated for 20 min, fluorescence values were determined through microplate reader of an ELISA kit of the Cisbo Company, a standard curve was established to convert the fluorescence values into corresponding cAMP values, and the EC50 value of the compound was calculated through nonlinear regression of Graphpad Prism 5.0 software.

By EC50 is commonly meant the concentration at which the effect is half-maximal. As to `CCCCCCCCCCCCCCCC(=O)N[C@@H](CCC(=O)NCCCC[C@H](NC(=O)[C@H](CCC(N)=O)NC(=O)[C@H](C)NC(=O)[C@@H](NC(=O)[C@H](CCCCN)NC(=O)[C@H](CC(=O)O)NC(=O)[C@H](CC(C)C)NC(=O)C(C)(C)NC(=O)[C@@H](NC(=O)[C@H](CO)NC(=O)[C@H](Cc1ccc(O)cc1)NC(=O)[C@H](CC(=O)O)NC(=O)[C@H](CO)NC(=O)[C@@H](NC(=O)[C@H](Cc1ccccc1)NC(=O)[C@@H](NC(=O)CNC(=O)[C@H](CCC(=O)O)NC(=O)[C@H](C)NC(=O)[C@@H](N)Cc1ccc(O)cc1)[C@@H](C)O)[C@@H](C)O)[C@@H](C)CC)[C@@H](C)CC)C(=O)N[C@@H](C)C(=O)N[C@@H](Cc1ccccc1)C(=O)N[C@H](C(=O)N[C@@H](CCC(N)=O)C(=O)N[C@@H](Cc1c[nH]c2ccccc12)C(=O)N[C@@H](CC(C)C)C(=O)N[C@H](C(=O)N[C@@H](C)C(=O)NCC(=O)NCC(=O)N1CCC[C@H]1C(=O)N[C@@H](CO)C(=O)N[C@@H](CO)C(=O)NCC(=O)N[C@@H](C)C(=O)N1CCC[C@H]1C(=O)N1CCC[C@H]1C(=O)N1CCC[C@H]1C(=O)N[C@@H](CO)C(N)=O)[C@@H](C)CC)C(C)C)C(=O)O` [ID NO: 16] (HELM PEPTIDE1{Y.A.E.G.T.F.T.S.D.Y.S.I.[Aib].L.D.K.I.A.Q.K.A.F.V.Q.W.L.I.A.G.G.P.S.S.G.A.P.P.P.S.[am]}|PEPTIDE2{[CCCCCCCCCCCCCCCC(=O)[*:2]].[gGlu]}$PEPTIDE1,PEPTIDE2,20:R3-2:R2$$$V2.0), the 50% effective concentration (EC50) came to 42.5 pM on mGLP-1R and 9.65 pM on mGIPR.
Regarding `CCCCCCCCCCCCCCCC(=O)N[C@@H](CCC(=O)NCCCC[C@H](NC(=O)[C@H](CCC(N)=O)NC(=O)[C@H](C)NC(=O)[C@@H](NC(=O)[C@H](CCCCN)NC(=O)[C@H](CC(=O)O)NC(=O)[C@H](CC(C)C)NC(=O)[C@H](C)NC(=O)[C@@H](NC(=O)[C@H](CO)NC(=O)[C@H](Cc1ccc(O)cc1)NC(=O)[C@H](CC(=O)O)NC(=O)[C@H](CO)NC(=O)[C@@H](NC(=O)[C@H](Cc1ccccc1)NC(=O)[C@@H](NC(=O)CNC(=O)[C@H](CCC(=O)O)NC(=O)C(C)(C)NC(=O)[C@@H](N)Cc1ccc(O)cc1)[C@@H](C)O)[C@@H](C)O)[C@@H](C)CC)[C@@H](C)CC)C(=O)N[C@@H](C)C(=O)N[C@@H](Cc1ccccc1)C(=O)N[C@H](C(=O)N[C@@H](CCC(N)=O)C(=O)N[C@@H](Cc1c[nH]c2ccccc12)C(=O)N[C@@H](CC(C)C)C(=O)N[C@H](C(=O)N[C@@H](C)C(=O)NCC(=O)NCC(=O)N1CCC[C@H]1C(=O)N[C@@H](CO)C(=O)N[C@@H](CO)C(=O)NCC(=O)N[C@@H](C)C(=O)N1CCC[C@H]1C(=O)N1CCC[C@H]1C(=O)N1CCC[C@H]1C(=O)N[C@@H](CO)C(N)=O)[C@@H](C)CC)C(C)C)C(=O)O` [ID NO: 17] (HELM PEPTIDE1{Y.[Aib].E.G.T.F.T.S.D.Y.S.I.A.L.D.K.I.A.Q.K.A.F.V.Q.W.L.I.A.G.G.P.S.S.G.A.P.P.P.S.[am]}|PEPTIDE2{[CCCCCCCCCCCCCCCC(=O)[*:2]].[gGlu]}$PEPTIDE1,PEPTIDE2,20:R3-2:R2$$$V2.0), the EC50 stood at 45.4 pM at mGLP-1R and 9.72 pM at mGIPR.
Consider `CCCCCCCCCCCCCCCC(=O)N[C@@H](CCC(=O)NCCCC[C@H](NC(=O)[C@H](CCC(N)=O)NC(=O)[C@H](C)NC(=O)[C@@H](NC(=O)[C@H](CCCCN)NC(=O)[C@H](CC(=O)O)NC(=O)[C@H](CC(C)C)NC(=O)C(C)(C)NC(=O)[C@@H](NC(=O)[C@H](CO)NC(=O)[C@H](Cc1ccc(O)cc1)NC(=O)[C@H](CC(=O)O)NC(=O)[C@H](CO)NC(=O)[C@@H](NC(=O)[C@H](Cc1ccccc1)NC(=O)[C@@H](NC(=O)CNC(=O)[C@H](CCC(=O)O)NC(=O)C1(NC(=O)[C@@H](N)Cc2ccc(O)cc2)CCC1)[C@@H](C)O)[C@@H](C)O)[C@@H](C)CC)[C@@H](C)CC)C(=O)N[C@@H](C)C(=O)N[C@@H](Cc1ccccc1)C(=O)N[C@H](C(=O)N[C@@H](CCC(N)=O)C(=O)N[C@@H](Cc1c[nH]c2ccccc12)C(=O)N[C@@H](CC(C)C)C(=O)N[C@H](C(=O)N[C@@H](C)C(=O)NCC(=O)NCC(=O)N1CCC[C@H]1C(=O)N[C@@H](CO)C(=O)N[C@@H](CO)C(=O)NCC(=O)N[C@@H](C)C(=O)N1CCC[C@H]1C(=O)N1CCC[C@H]1C(=O)N1CCC[C@H]1C(=O)N[C@@H](CO)C(N)=O)[C@@H](C)CC)C(C)C)C(=O)O` [ID NO: 18], for which the concentration for a half-maximal effect (EC50) on mGLP-1R came to 9.02 pM; at mGIPR, 8.33 pM.
On to `CCCCCCCCCCCCCCCC(=O)N[C@@H](CCC(=O)NCCCC[C@H](NC(=O)[C@H](CCC(N)=O)NC(=O)[C@H](C)NC(=O)[C@@H](NC(=O)[C@H](CCCCN)NC(=O)[C@H](CC(=O)O)NC(=O)[C@H](CC(C)C)NC(=O)C1(NC(=O)[C@@H](NC(=O)[C@H](CO)NC(=O)[C@H](Cc2ccc(O)cc2)NC(=O)[C@H](CC(=O)O)NC(=O)[C@H](CO)NC(=O)[C@@H](NC(=O)[C@H](Cc2ccccc2)NC(=O)[C@@H](NC(=O)CNC(=O)[C@H](CCC(=O)O)NC(=O)C(C)(C)NC(=O)[C@@H](N)Cc2ccc(O)cc2)[C@@H](C)O)[C@@H](C)O)[C@@H](C)CC)CCC1)[C@@H](C)CC)C(=O)N[C@@H](C)C(=O)N[C@@H](Cc1ccccc1)C(=O)N[C@H](C(=O)N[C@@H](CCC(N)=O)C(=O)N[C@@H](Cc1c[nH]c2ccccc12)C(=O)N[C@@H](CC(C)C)C(=O)N[C@H](C(=O)N[C@@H](C)C(=O)NCC(=O)NCC(=O)N1CCC[C@H]1C(=O)N[C@@H](CO)C(=O)N[C@@H](CO)C(=O)NCC(=O)N[C@@H](C)C(=O)N1CCC[C@H]1C(=O)N1CCC[C@H]1C(=O)N1CCC[C@H]1C(=O)N[C@@H](CO)C(N)=O)[C@@H](C)CC)C(C)C)C(=O)O` [ID NO: 19], for which the results for the 50% effective concentration (EC50) on mGLP-1R and at mGIPR were 11.9 pM and 7.91 pM, respectively.
In the case of `CCCCCCCCCCCCCCCC(=O)N[C@@H](CCC(=O)NCCCC[C@H](NC(=O)[C@H](CCC(N)=O)NC(=O)[C@H](C)NC(=O)[C@@H](NC(=O)[C@H](CCCCN)NC(=O)[C@H](CC(=O)O)NC(=O)[C@H](CC(C)C)NC(=O)C(C)(C)NC(=O)[C@@H](NC(=O)[C@H](CO)NC(=O)[C@H](Cc1ccc(O)cc1)NC(=O)[C@H](CC(=O)O)NC(=O)[C@H](CO)NC(=O)[C@@H](NC(=O)[C@H](Cc1ccccc1)NC(=O)[C@@H](NC(=O)CNC(=O)[C@H](CCC(=O)O)NC(=O)C1(NC(=O)[C@@H](N)Cc2ccc(O)cc2)CCCC1)[C@@H](C)O)[C@@H](C)O)[C@@H](C)CC)[C@@H](C)CC)C(=O)N[C@@H](C)C(=O)N[C@@H](Cc1ccccc1)C(=O)N[C@H](C(=O)N[C@@H](CCC(N)=O)C(=O)N[C@@H](Cc1c[nH]c2ccccc12)C(=O)N[C@@H](CC(C)C)C(=O)N[C@H](C(=O)N[C@@H](C)C(=O)NCC(=O)NCC(=O)N1CCC[C@H]1C(=O)N[C@@H](CO)C(=O)N[C@@H](CO)C(=O)NCC(=O)N[C@@H](C)C(=O)N1CCC[C@H]1C(=O)N1CCC[C@H]1C(=O)N1CCC[C@H]1C(=O)N[C@@H](CO)C(N)=O)[C@@H](C)CC)C(C)C)C(=O)O` [ID NO: 20], the EC50 at mGLP-1R was found to be 15.9 pM; on mGIPR, 5.91 pM.
In the case of `CCCCCCCCCCCCCCCC(=O)N[C@@H](CCC(=O)NCCCC[C@H](NC(=O)[C@H](CCC(N)=O)NC(=O)[C@H](C)NC(=O)[C@@H](NC(=O)[C@H](CCCCN)NC(=O)[C@H](CC(=O)O)NC(=O)[C@H](CC(C)C)NC(=O)C1(NC(=O)[C@@H](NC(=O)[C@H](CO)NC(=O)[C@H](Cc2ccc(O)cc2)NC(=O)[C@H](CC(=O)O)NC(=O)[C@H](CO)NC(=O)[C@@H](NC(=O)[C@H](Cc2ccccc2)NC(=O)[C@@H](NC(=O)CNC(=O)[C@H](CCC(=O)O)NC(=O)C(C)(C)NC(=O)[C@@H](N)Cc2ccc(O)cc2)[C@@H](C)O)[C@@H](C)O)[C@@H](C)CC)CCCC1)[C@@H](C)CC)C(=O)N[C@@H](C)C(=O)N[C@@H](Cc1ccccc1)C(=O)N[C@H](C(=O)N[C@@H](CCC(N)=O)C(=O)N[C@@H](Cc1c[nH]c2ccccc12)C(=O)N[C@@H](CC(C)C)C(=O)N[C@H](C(=O)N[C@@H](C)C(=O)NCC(=O)NCC(=O)N1CCC[C@H]1C(=O)N[C@@H](CO)C(=O)N[C@@H](CO)C(=O)NCC(=O)N[C@@H](C)C(=O)N1CCC[C@H]1C(=O)N1CCC[C@H]1C(=O)N1CCC[C@H]1C(=O)N[C@@H](CO)C(N)=O)[C@@H](C)CC)C(C)C)C(=O)O` [ID NO: 21], the concentration for a half-maximal effect (EC50) at mGLP-1R is 17.8 pM; on mGIPR it was 8.07 pM.
